For test [1], the target named is T1, human DGKζ (Homo sapiens (Human), UniProt Q13574). Nature of the test: DGKζ assay (detergent/lipid micelle substrate). The format is biochemical. The settings on record: detergent/lipid micelle substrate; read-out: DGKζ IC50. Put shortly: (§1)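 Full-length human DGKα or DGKζ (C-terminal His tag, Sf9-expressed; 20 nM 4× stock) was preincubated 10 min at room temperature with PS/DAG octyl glucoside micelles in MOPS pH 7.5 buffer with MgCl2, CaCl2 and DTT. It was then started with ATP (300 uM addition) and run for 1 hr, with ADP-Glo luminescence read-out.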

In test [2] the target is T2, human DGKα (Homo sapiens (Human), UniProt P23743). Nature of the test: biochemical. The settings on record: detergent/lipid micelle substrate; read-out: DGKα IC50. The procedure, abridged: as §1
For test [3], the target named is T2, human DGKα. Description: DGKα LIPGLO assay (extruded liposome substrate). The format is biochemical. Put shortly: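 Human full-length DGKα, His-tagged and produced in Sf9 cells, assayed at 20 nM (4× stock) on extruded liposomes of PS, 0.25 mM DAG and 2.75 mM PC, preincubated 10 min. Reaction started with 300 μM ATP (stock) and ran 1 h in MOPS pH 7.5/MgCl2/CaCl2/DTT buffer.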

Test [4] has as its system pre-activated CD4 T cells and Raji cells. Nature of the test: Raji CD4 T Cell IL2 Assay. The format is cell-based. The following applies: Homo sapiens, Raji.
The target of test [5] is T1, human DGKζ. Nature of the test: DGKζ LIPGLO assay (extruded liposome substrate). The format is biochemical. The settings on record: extruded liposome substrate; read-out: DGKζ LIPGLO IC50. Put shortly:
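Recombinant DGKζ (Sf9-expressed, Ni/SEC/SP-purified) preincubated 10 min with extruded 100 nm PC/DAG/PS liposomes in 50 mM MOPS pH 7.5, 100 mM NaCl, 10 mM MgCl2, 1 μM CaCl2, 1 mM DTT. Started with 300 uM ATP solution (stock, pre-addition); 1 hr reaction. ADP-Glo luminescence; IC50 from 11 concentrations.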

T1 sequence (Q13574 other isoform, or with tags, fused parts or gaps): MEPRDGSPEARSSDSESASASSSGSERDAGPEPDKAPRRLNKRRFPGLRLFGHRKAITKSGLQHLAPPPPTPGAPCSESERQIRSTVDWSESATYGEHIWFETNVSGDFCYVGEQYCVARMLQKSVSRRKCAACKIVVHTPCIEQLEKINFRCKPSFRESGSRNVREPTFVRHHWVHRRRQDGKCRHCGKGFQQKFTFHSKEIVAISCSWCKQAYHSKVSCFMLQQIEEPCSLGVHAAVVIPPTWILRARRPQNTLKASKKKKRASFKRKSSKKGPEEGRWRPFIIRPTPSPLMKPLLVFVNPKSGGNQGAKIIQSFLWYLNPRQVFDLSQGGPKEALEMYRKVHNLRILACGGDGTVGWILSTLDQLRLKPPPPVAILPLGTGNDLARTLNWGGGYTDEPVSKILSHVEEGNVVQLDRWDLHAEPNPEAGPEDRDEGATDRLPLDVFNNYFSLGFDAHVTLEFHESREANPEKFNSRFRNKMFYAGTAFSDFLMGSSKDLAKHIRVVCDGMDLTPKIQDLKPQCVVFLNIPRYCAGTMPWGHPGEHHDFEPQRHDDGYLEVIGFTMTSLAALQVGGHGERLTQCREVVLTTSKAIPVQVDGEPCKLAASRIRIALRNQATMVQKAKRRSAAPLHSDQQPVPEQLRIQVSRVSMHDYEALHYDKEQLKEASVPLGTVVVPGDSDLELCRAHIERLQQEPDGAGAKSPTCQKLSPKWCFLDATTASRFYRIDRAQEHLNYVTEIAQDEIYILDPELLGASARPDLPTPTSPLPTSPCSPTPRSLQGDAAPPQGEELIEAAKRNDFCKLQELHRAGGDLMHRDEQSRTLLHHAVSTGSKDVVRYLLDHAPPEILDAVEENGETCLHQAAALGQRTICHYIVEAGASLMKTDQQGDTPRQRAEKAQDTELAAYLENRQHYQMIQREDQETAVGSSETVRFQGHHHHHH
T2 sequence (P23743 other isoform, or with tags, fused parts or gaps): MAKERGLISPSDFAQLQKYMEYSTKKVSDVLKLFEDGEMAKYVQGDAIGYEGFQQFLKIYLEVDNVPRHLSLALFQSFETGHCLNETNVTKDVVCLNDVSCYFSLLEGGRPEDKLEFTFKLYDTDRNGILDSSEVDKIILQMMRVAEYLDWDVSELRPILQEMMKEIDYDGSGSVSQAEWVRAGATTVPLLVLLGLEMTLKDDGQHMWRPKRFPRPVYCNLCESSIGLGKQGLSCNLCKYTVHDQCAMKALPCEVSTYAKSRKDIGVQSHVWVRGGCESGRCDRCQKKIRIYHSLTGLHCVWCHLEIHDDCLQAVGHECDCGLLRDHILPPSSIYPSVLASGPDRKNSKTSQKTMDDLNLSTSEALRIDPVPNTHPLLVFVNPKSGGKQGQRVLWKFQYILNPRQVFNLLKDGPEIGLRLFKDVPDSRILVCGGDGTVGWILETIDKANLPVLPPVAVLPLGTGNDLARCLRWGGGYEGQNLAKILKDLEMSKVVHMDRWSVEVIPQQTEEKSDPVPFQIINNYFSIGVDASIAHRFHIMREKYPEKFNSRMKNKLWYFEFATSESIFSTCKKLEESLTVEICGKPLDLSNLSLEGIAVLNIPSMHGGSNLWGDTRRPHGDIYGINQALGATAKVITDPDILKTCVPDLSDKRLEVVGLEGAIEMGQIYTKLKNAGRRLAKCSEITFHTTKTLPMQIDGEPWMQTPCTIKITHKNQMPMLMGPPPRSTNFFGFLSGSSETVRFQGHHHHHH

As to `COc1ccc(O)c(CN2CCN(c3c(C#N)c(=O)n(C)c4ccc(Cl)nc34)CC2)c1` [Example 305, 6-chloro-4-{4-[(2-hydroxy-5-methoxyphenyl)methyl]piperazin-1-yl}-1-methyl-2-oxo-1,2-dihydro-1,5-naphthyridine-3-carbonitrile], the IC50 (commonly the point on the concentration scale where inhibition reaches its midpoint) is 62 µM on human DGKζ [1]; 0.13 µM at human DGKα [2]; 0.49 µM at human DGKα [3]; 0.21 µM in test [4]; 7.5 µM on human DGKζ [5].

For the compound `Cn1c(=O)c(C#N)c(N2CCN(Cc3cc(F)ccc3O)CC2)c2nc(Cl)ccc21` [Example 312, 6-chloro-4-{4-[(5-fluoro-2-hydroxyphenyl)methyl]piperazin-1-yl}-1-methyl-2-oxo-1,2-dihydro-1,5-naphthyridine-3-carbonitrile], the IC50 at human DGKζ [1] is greater than 240 µM; on human DGKα [2] it was 0.12 µM; against human DGKα [3] it was 0.22 µM; in test [4], 0.24 µM; on human DGKζ [5], 16 µM.

`Cn1c(=O)c(C#N)c(N2CCN(Cc3cc(F)cc(C(F)(F)F)c3)CC2)c2nc(Cl)ccc21` [Example 313, 6-chloro-4-(4-{[3-fluoro-5-(trifluoromethyl)phenyl]methyl}piperazin-1-yl)-1-methyl-2-oxo-1,2-dihydro-1,5-naphthyridine-3-carbonitrile]: the IC50 on human DGKζ [1] is greater than 81 µM; at human DGKα [2], 1.5 µM; at human DGKα [3], 17 µM; in test [4], 0.25 µM; on human DGKζ [5], 62 µM.

Take `Cn1c(=O)c(C#N)c(N2CCN(Cc3cccc(F)c3)CC2)c2nc(Cl)ccc21` [Example 321, 6-chloro-4-{4-[(3-fluorophenyl)methyl]piperazin-1-yl}-1-methyl-2-oxo-1,2-dihydro-1,5-naphthyridine-3-carbonitrile]: the half-inhibitory concentration (IC50) at human DGKζ [1] was greater than 240 µM; on human DGKα [2] it was 0.16 µM; against human DGKα [3], 0.34 µM; in test [4], 0.31 µM; at human DGKζ [5], 12 µM.

As for `Cn1c(=O)c(C#N)c(N2CCN(Cc3ccc(Cl)c(O)c3)CC2)c2nc(Cl)ccc21` [Example 323, 6-chloro-4-{4-[(4-chloro-3-hydroxyphenyl)methyl]piperazin-1-yl}-1-methyl-2-oxo-1,2-dihydro-1,5-naphthyridine-3-carbonitrile], the IC50 is 11 µM at human DGKζ [1]; 0.14 µM at human DGKα [2]; 1.2 µM against human DGKα [3]; 0.34 µM in test [4]; 27 µM on human DGKζ [5].

For the compound `Cc1ccc2c(n1)c(N1CCN(Cc3cccc(F)c3O)CC1)c(C#N)c(=O)n2C` [Example 329, 4-{4-[(3-fluoro-2-hydroxyphenyl)methyl]piperazin-1-yl}-1,6-dimethyl-2-oxo-1,2-dihydro-1,5-naphthyridine-3-carbonitrile], the IC50 amounted to 30 µM at human DGKζ [1]; 0.56 µM at human DGKα [2]; 5.6 µM against human DGKα [3]; 0.47 µM in test [4]; 49 µM on human DGKζ [5].

Regarding `Cn1c(=O)c(C#N)c(N2CCN(Cc3ccc(Cl)c(O)c3)CC2)c2nc(C#N)ccc21` [Example 332, 8-{4-[(4-chloro-3-hydroxyphenyl)methyl]piperazin-1-yl}-5-methyl-6-oxo-5,6-dihydro-1,5-naphthyridine-2,7-dicarbonitrile], the IC50 on human DGKζ [1] is 67 µM; on human DGKα [2], 1.1 µM; at human DGKα [3] it was 2.5 µM; in test [4], 0.53 µM; on human DGKζ [5], 6.5 µM.

On to `COc1cccc(F)c1CN1CCN(c2c(C#N)c(=O)n(C)c3ccc(Cl)nc23)CC1` [Example 335, 6-chloro-4-{4-[(2-fluor-6-methoxyphenyl)methyl]piperazin-1-yl}-1-methyl-2-oxo-1,2-dihydro-1,5-naphthyridine-3-carbonitrile], for which the concentration for half-maximal inhibition (IC50) on human DGKζ [1] was greater than 240 µM; on human DGKα [2] it was 2.7 µM; on human DGKα [3], 1.9 µM; in test [4], 0.54 µM; on human DGKζ [5], 18 µM.

The values above are taken from patent US11866430B2, “Naphthyridinone compounds useful as T cell activators” (priority 2018, dated 2024).
